Target: T1, PAR1 (Homo sapiens, UniProt P25116)
T1 construct: endogenous in cells; host or cells: washed platelets from platelet-rich plasma of healthy volunteers
T1 sequence (P25116 22-425): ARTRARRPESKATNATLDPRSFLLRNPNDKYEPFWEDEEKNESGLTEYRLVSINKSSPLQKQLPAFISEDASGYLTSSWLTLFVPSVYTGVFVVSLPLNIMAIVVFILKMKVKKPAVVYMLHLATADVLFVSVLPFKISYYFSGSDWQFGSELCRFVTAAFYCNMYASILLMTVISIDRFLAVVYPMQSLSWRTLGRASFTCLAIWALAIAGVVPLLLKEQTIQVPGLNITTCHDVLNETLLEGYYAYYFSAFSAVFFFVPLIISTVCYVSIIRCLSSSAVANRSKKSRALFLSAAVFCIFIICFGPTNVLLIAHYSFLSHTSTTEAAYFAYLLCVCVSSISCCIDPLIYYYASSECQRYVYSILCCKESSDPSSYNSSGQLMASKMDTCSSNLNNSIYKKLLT
Test: Inhibition of PAR1-mediated platelet aggregation induced by TRAP (96-well format)
Type: cell-based
Settings: washed platelets from blood of healthy volunteers; agonist TRAP (thrombin-receptor activating peptide) solution 70-100 μM; AUC at 650 nm, 37° C., 20 minutes
Protocol: PAR 1 determination method: Inhibition of PAR1-mediated platelet aggregation The pharmacological testing of the substances was carried out in the platelet aggregation induced by TRAP (thrombin-receptor activating peptide) in a 96-well format. To this end, blood from healthy volunteers was taken in 20 ml syringes into which 2 ml of 3.13% strength sodium citrate solution was initially introduced. After a 20-minute centrifugation at 150×g, the platelet-rich plasma (PRP) was separated off and treated with 1 μl of PGE1 solution (500 μg/ml in ethanol)/ml of PRP. After incubation at RT for 5 minutes, this was centrifuged at 120×g for 15 minutes in order to remove the leucocytes. The leucocyte-free PRP was transferred to 15 ml PP tubes in 5 ml portions and centrifuged off at 360×g for 15 minutes in order to pellet the platelets. Subsequently, the plasma was decanted and the platelet sediment from 5 ml of PRP was resuspended in 1 ml of Tyrode (120 mM NaCl, 2.6 mM KCl, 12 mM NaHCO3, 0.39 mM NaH2PO4×H2O, 10 mM HEPES, 0.35% BSA, 5.5 mM glucose, pH 7.4) and adjusted with Tyrode to a platelet count of 3×10^5/microliter (μl). 13 ml of this cell suspension were then treated with 866 μl of 10 mM CaCl2 solution and 120 μl thereof per well were pipetted to a 96-well plate, in which 15 μl of the substance to be tested were initially introduced. After incubation in the dark at RT for 30 minutes, 15 μl of a TRAP solution (70-100 μM) were added as the agonist and kinetics were recorded with shaking at 37° C. for 20 minutes in a SpectraMax 340 at 650 nm. The areas under the curves of negative control (Tyrode/DMSO) and positive control (15 μl of agonist/DMSO) were calculated and the difference was defined as the 100% value. The substances to be tested were pipetted as a dilution series in a duplicate determination, likewise the AUC of each substance concentration was determined and the % inhibition of the AUC against the control was calculated. By means of the % inhibition, the IC50 was calculated with the aid of a nonlinear regression analysis according to the 4 parameter equation.

| SMILES | IC50 |
| --- | --- |
| N=c1n(CC(=O)c2cccc(S(F)(F)(F)(F)F)c2)cc2ccccn12 [Example 2, 2-(3-Iminoimidazo[1,5-a]pyridin-2-yl)-1-(3-pentafluorosulfanylphenyl)ethanone] | 13 µM |
| CC(C)(C)c1cc(C(=O)Cn2c(C3CC3)c3ccccn3c2=N)cc(C(C)(C)C)c1O [Example 3, 2-(1-Cyclopropyl-3-iminoimidazo[1,5-a]pyridin-2-yl)-1-(3,5-di-tert-butyl-4-hydroxyphenyl)ethanone] | 0.85 µM |
| CC(C)(C)c1cc(C(=O)Cn2cc3cc(C(F)(F)F)ccn3c2=N)cc(C(C)(C)C)c1O [Example 6b, 1-(3,5-Di-tert-butyl-4-hydroxyphenyl)-2-(3-imino-7-trifluoromethylimidazo[1,5-a]pyridin-2-yl)ethanone] | 0.73 µM |
| COC(=O)c1ccc2cn(CC(=O)c3cc(N4CCOCC4)c(OC)c(C(C)(C)C)c3)c(=N)n2c1 [Example 8, Methyl 2-[2-(3-tert-butyl-4-methoxy-5-morpholin-4-ylphenyl)-2-oxoethyl]-3-imino-2,3-dihydroimidazo[1,5-a]pyridine-6-carboxylate] | 0.51 µM |
| CCOc1cc2cn(CC(=O)c3cc4c(c(C(C)(C)C)c3)OCCN4C)c(=N)n2cc1C(=O)NC [Example 12, 2-[2-(8-tert-Butyl-4-methyl-3,4-dihydro-2H-benzo[1,4]oxazin-6-yl)-2-oxoethyl]-7-ethoxy-3-imino-2,3-dihydroimidazo[1,5-a]pyridine-6-carboxylic acid methylamide] | 0.02 µM |
| CCOc1ccc2n(c1=O)C(=N)N(CC(=O)c1cc(N3CCOCC3)c(OC)c(C(C)(C)C)c1)C2 [Example 18, 2-[2-(3-tert-Butyl-4-methoxy-5-morpholin-4-ylphenyl)-2-oxoethyl]-6-ethoxy-3-imino-2,3-dihydro-1H-imidazo[1,5-a]pyridin-5-one] | 9.5 µM |
| CCOc1cc2cn(CC(=O)c3cc(N4CCOCC4)c(OC)c(C(C)(C)C)c3)c(=N)n2cc1C(=O)NC [Example 19, 2-[2-(3-tert-Butyl-4-methoxy-5-morpholin-4-ylphenyl)-2-oxoethyl]-7-ethoxy-3-imino-2,3-dihydroimidazo[1,5-a]pyridine-6-carboxylic acid Methylamide] | 0.9 µM |
| CCOC(=O)c1cc(OC)n2c(=N)n(CC(=O)c3cc(N4CCOCC4)c(OC)c(C(C)(C)C)c3)cc2c1 [Example 20, Ethyl 2-[2-(3-tert-butyl-4-methoxy-5-morpholin-4-ylphenyl)-2-oxoethyl]-3-imino-5-methoxy-2,3-dihydroimidazo[1,5-a]pyridine-7-carboxylate] | 0.07 µM |
